Test results as given in patent US8227604B2, “Hybrid 2-aminotetralin and aryl-substituted piperazine compounds and their use in altering CNS activity” (Wayne State University, priority 2001, dated 2012).

Tests used:
D4 receptor = molecular target: T1, D4 receptor (Homo sapiens, UniProt P21917); experiment: Agonist potency by [3H]thymidine incorporation (mitogenesis), D4; assay type: cell-based; parameters: expressed in transfected cells; settings: for EC50 / D4 % Maxm Stim: [3H]thymidine incorporation; for D4 % Maxm Stim: >80% full agonist
T1 sequence (P21917 1-419): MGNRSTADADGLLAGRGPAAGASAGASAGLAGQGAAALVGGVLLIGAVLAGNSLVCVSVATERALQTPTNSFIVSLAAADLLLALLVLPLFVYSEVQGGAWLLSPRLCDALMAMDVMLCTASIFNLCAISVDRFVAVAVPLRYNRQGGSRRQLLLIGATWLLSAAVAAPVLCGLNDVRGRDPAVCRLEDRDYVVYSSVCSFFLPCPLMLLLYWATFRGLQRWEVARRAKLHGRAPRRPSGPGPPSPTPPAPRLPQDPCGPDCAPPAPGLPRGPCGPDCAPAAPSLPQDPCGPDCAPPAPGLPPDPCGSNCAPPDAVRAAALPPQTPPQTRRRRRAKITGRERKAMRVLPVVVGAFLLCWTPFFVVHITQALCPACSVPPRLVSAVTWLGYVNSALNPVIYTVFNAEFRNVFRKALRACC
Protocol: (§1) Potential as domaminergenic agonists was assayed by ^3H-thymidine incorporation by standard techniques.
The mitogenesis study results presented in Table 7 assay the ability of these ligands to act as agonists or antagonists. The EC50 values thus indicate intrinsic activities or functional activities of these compounds. The value of % maximum stimulation indicates whether a compound is a partial agonist or full agonist. Generally, a value greater than 80% is considered as a full agonist and anything less than 80% is considered as a partial agonist. A compound will be considered antagonist if it produces a negative result (no [3H]thymidine incorporation) in the assay. All the compounds reported in Table 7 are either full agonists or partial agonists.

D3 receptor [1] = molecular target: T2, D3 receptor (Homo sapiens, UniProt P35462); experiment: Agonist potency by [3H]thymidine incorporation (mitogenesis), D3; assay type: cell-based; parameters: expressed in transfected cells; host or cells: CHOp-D3 cells; settings: for EC50 / Emax: [3H]thymidine incorporation; for Emax: >80% full agonist, read-out: D3 % Maxm Stim
T2 sequence (P35462 whole entry): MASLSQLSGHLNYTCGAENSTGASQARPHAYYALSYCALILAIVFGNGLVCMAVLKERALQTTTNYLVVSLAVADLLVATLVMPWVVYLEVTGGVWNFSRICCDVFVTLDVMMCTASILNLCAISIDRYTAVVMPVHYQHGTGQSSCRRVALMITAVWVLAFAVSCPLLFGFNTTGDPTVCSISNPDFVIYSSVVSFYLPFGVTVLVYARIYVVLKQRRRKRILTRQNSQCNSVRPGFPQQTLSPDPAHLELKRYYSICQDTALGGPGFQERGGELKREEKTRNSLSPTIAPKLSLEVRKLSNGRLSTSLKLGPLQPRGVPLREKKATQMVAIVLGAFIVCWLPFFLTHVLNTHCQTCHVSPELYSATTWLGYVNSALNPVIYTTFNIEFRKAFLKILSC
Protocol: as §1
(§2) The EC50 values thus indicate intrinsic activities or functional activities of these compounds. The value of % maximum stimulation indicates whether a compound is a partial agonist or full agonist. Generally, a value greater than 80% is considered as a full agonist and anything less than 80% is considered as a partial agonist.

5HT2C receptor = molecular target: T3, 5HT2C receptor (Homo sapiens, UniProt P28335); experiment: Binding affinity at cloned human 5HT2C receptor, [3H]Mesulergine
T3 construct: expressed in transfected cells
T3 sequence (P28335 33-458): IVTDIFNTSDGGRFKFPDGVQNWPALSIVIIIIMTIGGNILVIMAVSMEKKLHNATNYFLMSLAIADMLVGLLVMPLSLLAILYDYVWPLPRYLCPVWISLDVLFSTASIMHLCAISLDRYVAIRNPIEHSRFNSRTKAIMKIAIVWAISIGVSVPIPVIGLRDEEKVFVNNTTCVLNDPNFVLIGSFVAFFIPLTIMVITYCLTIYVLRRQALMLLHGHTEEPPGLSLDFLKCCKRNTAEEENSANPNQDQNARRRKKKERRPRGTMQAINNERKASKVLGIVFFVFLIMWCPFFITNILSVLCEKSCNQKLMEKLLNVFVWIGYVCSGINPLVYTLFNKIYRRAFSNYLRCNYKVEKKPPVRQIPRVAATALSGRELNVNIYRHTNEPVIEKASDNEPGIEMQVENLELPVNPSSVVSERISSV

D2 receptor = molecular target: T4, D2 receptor (Homo sapiens, UniProt P14416); experiment: Agonist potency by [3H]thymidine incorporation (mitogenesis), D2; assay type: cell-based; settings: [3H]thymidine incorporation; for Emax: >80% full agonist, read-out: D2 % Maxm Stim
T4 construct: expressed in transfected cells
T4 sequence (P14416 whole entry): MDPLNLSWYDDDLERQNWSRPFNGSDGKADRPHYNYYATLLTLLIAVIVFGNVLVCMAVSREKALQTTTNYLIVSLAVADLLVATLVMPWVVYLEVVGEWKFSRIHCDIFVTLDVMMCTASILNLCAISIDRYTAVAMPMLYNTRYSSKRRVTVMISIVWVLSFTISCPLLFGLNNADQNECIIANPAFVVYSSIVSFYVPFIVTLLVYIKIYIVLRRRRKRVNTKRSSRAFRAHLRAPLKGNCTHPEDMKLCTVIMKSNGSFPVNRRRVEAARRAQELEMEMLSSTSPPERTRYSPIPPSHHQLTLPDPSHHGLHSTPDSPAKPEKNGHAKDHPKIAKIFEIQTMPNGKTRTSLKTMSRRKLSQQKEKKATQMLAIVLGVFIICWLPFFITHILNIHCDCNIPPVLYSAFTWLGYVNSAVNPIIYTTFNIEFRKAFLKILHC
Protocol: as §1, §2

5HT2A receptor = molecular target: T5, 5HT2A receptor (Homo sapiens, UniProt P28223); experiment: Binding affinity at cloned human 5HT2A receptor, [3H]Ketanserin
T5 construct: expressed in transfected cells
T5 sequence (P28223 whole entry): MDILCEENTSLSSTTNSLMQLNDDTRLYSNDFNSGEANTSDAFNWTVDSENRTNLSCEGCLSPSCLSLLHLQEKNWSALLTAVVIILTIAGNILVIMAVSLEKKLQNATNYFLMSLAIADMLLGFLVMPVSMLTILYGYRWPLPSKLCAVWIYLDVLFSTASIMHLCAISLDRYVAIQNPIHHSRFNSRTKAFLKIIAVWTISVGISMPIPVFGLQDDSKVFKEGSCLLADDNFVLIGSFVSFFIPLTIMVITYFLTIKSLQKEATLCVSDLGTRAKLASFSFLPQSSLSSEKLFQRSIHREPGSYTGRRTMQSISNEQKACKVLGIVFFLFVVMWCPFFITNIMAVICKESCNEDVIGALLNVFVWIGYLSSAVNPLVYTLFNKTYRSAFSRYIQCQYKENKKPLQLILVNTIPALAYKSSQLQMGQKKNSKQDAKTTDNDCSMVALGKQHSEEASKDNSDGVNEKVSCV

D3 receptor [2] = molecular target: T2, D3 receptor; experiment: Inhibition constants for binding to cloned D3 receptor expressed in HEK cells, [3H]spiperone; settings: D3 expressed in HEK cells
Protocol: Inhibition constants for binding to cloned D2L and D3 receptors expressed in HEK cells by displacing [^3H] spiperone were measured for several compounds.

With `N#CCCCN(CCCCN1CCN(c2ccccc2)CC1)C1CCc2ccc(O)cc2C1` (centres unmarked) [Compound 8, 7-Hydroxy-2-[N-butyonitrile-(N-(4-phenylpiperazin-1-yl)-butyl)amino]tetralin] the EC50 (D4 receptor) was 54.8 ± 18.6 nM, the EC50 (D3 receptor [1]) was 68.1 ± 36.7 nM and the Emax (D3 receptor [1]) was 67.1 ± 1.93%. It also gave a Ki (5HT2C receptor) greater than 10000 nM, an EC50 (D2 receptor) of 74.5 ± 32.9 nM and an Emax (D2 receptor) of 54.1 ± 4.82%. For the same compound, the Ki (5HT2A receptor) was 701 ± 16.8 nM.

In the case of `O=C(NCCCCN(CCCCN1CCN(c2ccccc2)CC1)C1CCc2ccc(O)cc2C1)c1ccccc1` (centres unmarked) [Compound 10a, 7-Hydroxyl-2-[N-(4-benzoylaminobutyl)-(N-(4-phenylpiperazin-1-yl)-butyl)amino]tetralin], the EC50 (D4 receptor) is reported as 32.2 ± 2.51 nM, the “D4 % Maxm Stim” value (D4 receptor) is reported as 51.08 ± 1.72% and the EC50 (D3 receptor [1]) is reported as 110 ± 33.3 nM. For the same compound, the Emax (D3 receptor [1]) was 44.1 ± 11.6%, the Ki (5HT2C receptor) was greater than 10000 nM and the EC50 (D2 receptor) was 115 ± 20.2 nM. It also gave an Emax (D2 receptor) of 44.9 ± 0.84%, a Ki (5HT2A receptor) of 1230 ± 217 nM and a melting point of 70 to 71 °C.

With `O=C(NCCN(CCCCN1CCN(c2ccccc2)CC1)C1CCc2ccc(O)cc2C1)c1ccccc1` (centres unmarked) [Compound 10b, 7-Hydroxy-2-[N-(2-benzoylamino)ethyl-(N-(4-phenylpiperazin-1-yl)-butyl)amino]tetralin] the EC50 (D4 receptor) was 26.7 ± 10.6 nM, the “D4 % Maxm Stim” value (D4 receptor) was 71.36 ± 10.17% and the EC50 (D3 receptor [1]) was 104 ± 57.3 nM. For the same compound, the Emax (D3 receptor [1]) was 50.9 ± 12.6%, the Ki (5HT2C receptor) was greater than 10000 nM and the EC50 (D2 receptor) was 97.2 ± 47.7 nM. It also gave an Emax (D2 receptor) of 27 ± 5.54% and a Ki (5HT2A receptor) of 287 ± 50.2 nM.

In the case of `CCCN(CCCCN1CCN(c2ccccc2)CC1)C1CCc2ccc(O)cc2C1` (centres unmarked) [Compound 15b, 7-Hydroxyl-2-[N-propyl-(N-(4-phenylpiperazin-1-yl)-butyl)amino]tetralin], the EC50 (D4 receptor) is reported as 22.5 ± 11 nM, the “D4 % Maxm Stim” value (D4 receptor) is reported as 102.81 ± 20.21% and the “agonist character at the D4 receptor” value (D4 receptor; functional assay) is reported as “full agonists”. For the same compound, the EC50 (D3 receptor [1]) was 0.91 ± 0.46 nM, the Emax (D3 receptor [1]) was 74.9 ± 9.05% and the “agonist character at the D3 receptor” value (D3 receptor [1]; functional assay) was “partial agonism”. The Ki (5HT2C receptor) was greater than 10000 nM, the EC50 (D2 receptor) was 3.21 ± 0.46 nM and the Emax (D2 receptor) was 121 ± 26.1%. The Ki (5HT2A receptor) was 1780 ± 614 nM and the Ki (D3 receptor [2]) was 3.79 ± 0.4 nM.
